Tests used:
[1] = 3-day rat toxicity (tolerability) study of compound 12; format: in vivo; settings: for Summary of clinical signs and effects: NOEL = no observed effect level
Protocol: Two groups of male rats (n=3, Han Wistar) were obtained from Charles River Laboratories, UK. Animals were group housed for ~1 week before the initiation of dosing. On the first day of dosing, rats were ~11 weeks of age and weighed 250–300 g and received compound 12 via oral gavage at dose levels of 75 or 150 mg kg^−1 for three consecutive days and necropsied 24 h after the final dose. Vehicle: 1% pluronic F127; dose volume: 10 ml kg^−1. In addition to regular monitoring of the animals' general condition, toxicokinetic profiles were obtained on day 1 and clinical chemistry, haematology and histopathology were assessed from all animals on day 4. Female animals were not included in the study as sex differences in either exposure or tolerability were not expected and control animals were excluded from this preliminary study design to reduce animal usage. Body weights were collected during acclimation and before each dose. Food and water consumption were available ad libitum but not recorded.
Toxicokinetic profiles were obtained on day 1 from all animals (time points: 0.5, 1, 2, 4, 6 and 24 h post dose) via microsample tail prick (32 μl blood) and were analysed using a qualified analytical procedure. Clinical pathology blood samples were taken at necropsy (24 h after third and final dose) from all animals, and analysed following a routine toxicological parameter list. Urinalysis was not performed.

Dd2-6R F2 D8 = experiment: SYBR green growth assay, Dd2-6R F2 D8; settings: Plasmodium falciparum
Protocol: Assays were carried out in 384-well format with three technical replicates within an assay day and biological replicates carried out on three different assay days to assign a final EC50.
The drug was then washed off and the parasites were allowed to recover in normal growth media.

[2] = Acute anaesthetized guinea pig cardiovascular (CVS) model, compound 12; format: in vivo
Protocol: Male Dunkin Hartley guinea pigs (n=6 per group; 342–401 g; 4–5 weeks old; Charles River Laboratories, L’Arbresle, Cedex) were anaesthetized with sodium pentobarbitone (60 mg kg^−1 intraperitoneally followed by 6 mg kg^−1 h^−1 i.v. (jugular) for maintenance) and mechanically ventilated. Animals were surgically prepared for the measurement of haemodynamic (blood pressure, heart rate and contractility (including left ventricular pressure)) and electrocardiographic (ECG)-derived parameters (QTcB, PR interval and QRS duration). Briefly, catheters were introduced into a carotid artery and a jugular vein for the measurement of arterial blood pressure and administration of the test item, respectively. Needle electrodes were placed subcutaneously in a lead II position for ECG recording. A fluid-filled catheter was introduced into the left ventricle via the opposite carotid artery for left ventricular pressure measurement.
Animals received two consecutive i.v. infusions of either vehicle (group 1; 40% v/v dimethylacetamide/20% v/v polyethylene glycol 400/17% w/v hydroxyl propyl beta cyclodextrin (HPβCD/kleptose) in water for injection) or compound 12 at 10 or 30 mg kg^−1 (group 2). Each infusion lasted for 15 min at a dose volume of 3 ml kg^−1 (rate of 0.2 ml kg^−1 min^−1). Animals were monitored for a further 30-min washout period. Blood samples were taken at 5, 10 and 15 min after the start of each infusion and at 5, 10, 20 and 30 min during the washout phase.
Following a stabilization period, haemodynamic and ECG parameters were measured (using HEM software, version 4.3, Notocord Systems) at 10 and 5 min before administration (mean of measurements obtained at these time points=baseline; T0), and 2.5, 5, 10 and 15 min after the start of each i.v. infusion of compound 12 or vehicle and 5, 10, 20 and 30 min after the end of the second infusion. A detailed description of the model, its background and validation has been described earlier.
All parameters were analysed statistically using SAS software. Baseline values were defined as mean of measurments taken 10 or 5 min before dosing. For each parameter, homogeneity of baseline values (T0) between the two groups were tested using a two-tailed Student’s t-test. Changes from baseline were assessed using a two-way analysis of variance (group and time) with repeated measurements over the time and group × time interaction.
Anaesthetised Guinea Pig Cardiovascular toxicity study for compound 12. Group mean ±SEM data are presented in Supplementary Fig. 16a to 16l. Mean ± standard error plasma exposure data are illustrated in Supplementary Fig. 16m. The mean of the two control recording periods was used as a baseline value. Administration of vehicle produced the expected level of variability in cardiovascular parameters over the time course of this study.
This was considered within acceptable ranges for vehicle data. Actual changes caused by compound 12 were derived by subtracting the effect of the time-matched vehicle data and are discussed using mean % change from baseline values. All findings reported below achieved statistical significance (P < 0.05), unless indicated as a trend. Isolated incidences of statistical significance, that show no relation to compound effects, were not considered of […]
Blood pressure, LVP and heart rate effect: Following i.v. administration of compound 12 at 10 mg/kg, the following observations were noted:
- A 15% decrease in dP/dtmax (an index of cardiac contractility).
As the dose increased to 30 mg/kg, the following effects were observed:
- A 8% decrease in heart rate (HR), - A 10% decrease in left ventricular systolic pressure (LVsys), - A 27% decrease in dP/dtmax.
There was evidence of recovery for dP/dtmax during the 30 minutes wash-out period.
Despite attaining statistical significance, the magnitude of the effects on dP/dtmax at […]

[3] = PK in the blood of infected Pf/SCID mice; format: in vivo, mouse
Protocol: Peripheral blood samples (25 μl) were taken at different times (0.25, 0.5, 1, 2, 4, 6, 8 and 23 h), mixed with 25 μl of H2O Mili-Q and immediately frozen on dry ice. The frozen samples were stored at −80 °C until analysis. Vehicle-treated mice experienced the same blood-sampling regimen. Blood samples were processed by liquid–liquid extraction by mixing 10 μl diluted blood with 180 μl AcN:MeOH (80:20; v-v) mixture. Quantitative analysis by Liquid chromatography-tandem mass spectrometry (LC-MS/MS) was performed using UPLC (Waters) and Sciex API4000. The lower limit of quantification in this assay was 0.005 μg ml^−1.

Cc1nc(Nc2ncc(N3CCN(C)[C@H](C)C3)c(Nc3cc(C)n(C)n3)n2)cc(C2CC2)c1F [compound 12, (R)-N2-(4-cyclopropyl-5-fluoro-6-methylpyridin-2-yl)-N4-(1,5-dimethyl-1H-pyrazol-3-yl)-5-(3,4-dimethylpiperazin-1-yl)pyrimidine-2,4-diamine]
A—plasma Cmax free ([1]; 75 mg kg^−1 per day oral): 110 nM
Safety margin (A/B)-free Cmax ([1]; 75 mg kg^−1 per day oral): 12.6
Summary of clinical signs and effects ([1]; 75 mg kg^−1 per day oral): NOEL
A—plasma Cmax free ([1]; 150 mg kg^−1 per day oral): 130 nM
Safety margin (A/B)-free Cmax ([1]; 150 mg kg^−1 per day oral): 15
Summary of clinical signs and effects ([1]; 150 mg kg^−1 per day oral): NOEL
clinical pathology and histopathology findings ([1]; 75 or 150 mg kg^−1 oral, three days): no findings considered related to treatment
IC50 (Dd2-6R F2 D8): 69.6 nM
PR interval, QRS duration and QTcB interval ([2]; 10 mg/kg i.v.): unaffected
decrease in dP/dtmax (index of cardiac contractility) ([2]; 10 mg/kg i.v., vehicle-corrected mean % change from baseline): 15%
decrease in heart rate (HR) ([2]; 30 mg/kg i.v.): 8%
decrease in left ventricular systolic pressure (LVsys) ([2]; 30 mg/kg i.v.): 10%
increase in QTcB ([2]; 30 mg/kg i.v.): 7%
decrease in dP/dtmax ([2]; 30 mg/kg i.v., vehicle-corrected mean % change from baseline): 27%
A—plasma Cmax free ([2]; guinea pig, 10 mg kg^−1 i.v.): 90 nM
Safety margin (A/B)-free Cmax ([2]; guinea pig, 10 mg kg^−1 i.v.): 10.3
Summary of clinical signs and effects ([2]; guinea pig, 10 mg kg^−1 i.v., NOEL = no observed effect level): NOEL
Peak total plasma concentration ([2]; guinea pig, 10 mg/kg i.v.): 1.69 ± 0.15 µmol/L
A—plasma Cmax free ([2]; guinea pig, 30 mg kg^−1 i.v.): 280 nM
Safety margin (A/B)-free Cmax ([2]; guinea pig, 30 mg kg^−1 i.v.): 32.2
Summary of clinical signs and effects ([2]; guinea pig, 30 mg kg^−1 i.v.): Contractility and QTcB effects
Peak total plasma concentration ([2]; guinea pig, 30 mg/kg i.v.): 5.05 ± 0.64 µmol/L
NOEL ([2]; guinea pig, i.v.): 10 mg/kg
CL/F ([3]; SCID, mouse, whole blood, oral, parent, Fixed): 650 mL/min/kg
Blood Cmin (minimum parasiticidal concentration, MPC) ([3]; at 40 mg kg^−1): 40 nM
Ka ([3]; parent, Fixed): 1 h⁻¹
Ke0 ([3]; parent, Fixed): 0.06 h⁻¹
Vc/F ([3]; parent, Fixed): 462 L/kg

From PMC4389225, “Triaminopyrimidine is a fast-killing and long-acting antimalarial clinical candidate” (Nature Communications, 2015)
